From publication PMC10609720, “Antiviral Activity of Flavonoids from Geopropolis of the Brazilian Jandaira Bee against Zika and Dengue Viruses” (Pharmaceutics, 2023)

Key:
Vero cells = test: Cell viability assay (MTT) in Vero cells; type: cell-based; conditions: Vero cells
Protocol: (§1) The cell toxicity induced by the three tested fractions and the isolated flavonoids was evaluated in a growing Vero cell. […] To this end, Vero cells (1 × 10^4 cells/well) were plated in 96-well microplates 24 h beforehand. […] After a period of 120 h at 37 °C in a 5% CO2 atmosphere, the culture medium was removed from the plate, and 50 μL of recently prepared MTT solution (1 mg/mL) was then added. The 96-well microplate was placed in a CO2 incubator for 4 h at 37 °C. After this period, the MTT solution was replaced by DMSO. Then, the optical density at 540 nm (OD540) was measured using a BioTekTM ELx800TM 96-well plate reader (BioTek Instruments Inc., Winooski, VT. The OD540 subtraction of treated cells compared to untreated cells was calculated. […] The CC20 value was empirically defined as the maximum safe limit to perform the antiviral screening. Results were expressed as mean ± SD of three independent replicates. The differences in viral titer of treated and untreated infected cells were analyzed according to ANOVA followed by the Dunnett test using GraphPad Prism software v.5.01 (GraphPad Software, La Jolla, CA, USA). The drug concentration that reduced viral titer by 50% (IC50) was defined using the same software. […] The CC50 and CC20 values were also calculated using GraphPad Prism software in a non-linear regression interpretation. The selective index (SI) was based on the ratio math of CC50 and IC50 values. Data were reported as the mean ± standard deviation (SD) of three independent experiments. Significance was only considered when p < 0.05.

ZIKV = test: Post-treatment antiviral assay, viral titration by TCID50, ZIKV-infected Vero cells; type: cell-based; conditions: for % ZIKV Inhibition / IC50: Vero cells; for % ZIKV Inhibition: MOI 0.1, treated with CC20 of each sample for 120 h, TCID50; for IC50 / SI: ZIKV; for IC50: MOI 0.1, concentration to reduce viral titer by 50%; for SI: ratio of CC50 and IC50; for ZIKV-induced cytopathic effect in Vero cell monolayers: treatment at CC20, microscopy, Figure 4B,C
Protocol: (§2) One day prior to infection with the ZIKV or DENV strain, Vero cells were seeded in 24-well plates (5 × 10^4 cells/well). The infection was performed at the multiplicity of infection (MOI) of 0.1 for 2 h at 37 °C in 5% CO2. After virus internalization, the inoculum was removed, and the cells were washed using the growth medium. […] 6-MMPr, used as positive control drug, was also included as a drug treatment in some wells [33]. Controls of mock (non-infected) and infected non-treated cells were included. At 120 h post-infection (hpi), the cytopathic effect was evaluated using an inverted microscope (AE2000 binocular microscope, Motic, Hong Kong), and cells were photographed with a smartphone. The cell supernatant was harvested at 120 hpi and stored at −80 °C for posterior virus titration, using the TCID50 method.
(§3) The TCID50 method was used here to perform viral titration. The titer values were expressed as log10 TCID50/mL. One day prior to titration, Vero cells were seeded in a 96-well plate (1 × 10^4 cells/well) at 37 °C in a 5% CO2 incubator. The cell supernatants that were previous stored (see item 2.5—cytopathic effect assay) were serially diluted 10-fold in DMEM and submitted to the cell monolayer. After incubation for 5 days at 37 °C and 5% CO2, the cytopathic effect was observed through an inverted optical microscope, and the reduction in viral titer was defined according to Reed–Muench parameters.
(§4) The differences in viral titer of treated and untreated infected cells were analyzed according to ANOVA followed by the Dunnett test using GraphPad Prism software v.5.01 (GraphPad Software, La Jolla, CA, USA). The drug concentration that reduced viral titer by 50% (IC50) was defined using the same software. This represents the compound concentration required to reduce ZIKV or DENV titer by 50% when compared with the non-treated cells. The CC50 and CC20 values were also calculated using GraphPad Prism software in a non-linear regression interpretation. The selective index (SI) was based on the ratio math of CC50 and IC50 values. Data were reported as the mean ± standard deviation (SD) of three independent experiments. Significance was only considered when p < 0.05.

DENV-2 = test: Post-treatment antiviral assay, viral titration by TCID50, DENV-infected Vero cells; type: cell-based; conditions: for IC50 / SI: DENV; for IC50 / % DENV-2 Inhibition: Vero cells; for IC50: MOI 0.1, concentration to reduce viral titer by 50%; for SI: ratio of CC50 and IC50; for % DENV-2 Inhibition: MOI 0.1, treated with CC20 of each sample for 120 h, TCID50
Protocol: as §2, §3, §4

[1] = Cell viability assay (MTT) in Vero cells; type: cell-based; conditions: African green monkey
Protocol: as §1

Hela cells = test system: Hela cells; parameters: method as in PMID 29354400; conditions: at the tested concentrations, ref [59]; cited from earlier work
[2] = Table 3, non-toxic concentration used in the antiviral assays

SMILES | CC50 (Vero cells; Table 2, MTT method, 120 h) [µM] | CC50 (Vero cells; Table 3) [µM] | CC20 (Vero cells; [2]) [μM/mL] | % ZIKV Inhibition (ZIKV) [%] | IC50 (ZIKV) [µM] | SI (ZIKV) | IC50 (DENV-2) [µM] | SI (DENV-2) | % DENV-2 Inhibition (DENV-2) [%] | CC50 at 120 h [1] [µM] | IC50 (ZIKV; Zika virus) [µM] | ZIKV-induced cytopathic effect in Vero cell monolayers (ZIKV) | IC50 (DENV-2; Dengue virus, DENV2) [µM] | DENV-induced cytopathic effect in Vero cell monolayers (DENV-2; treatment at CC20, microscopy, Figure 5B,C) | cell viability (Hela cells) [%] | CC20 (Vero cells; Table 2, MTT method, 120 h) [µM/mL]
CSc1ncnc2c1ncn2[C@@H]1O[C@H](CO)[C@@H](O)[C@H]1O [6-MMPr, 6-methylmercaptopurine riboside, reference compound] | 291 | 291 | 60.5 | 51.5 | 24.5 | 11.9 | 18.2 | 16.0 | 48.3 |  |  |  |  |  |  | 
COc1cc(O)c2c(c1)O[C@H](c1ccc(O)cc1)CC2=O [7-O-methyl naringenin] |  |  |  | 30.3 |  | 18.7 |  | 7.7 | 51.6 | 240 | 12.8 | prevented morphological modifications | 30.9 | prevented morphological modifications | 100 | 
O=C1C[C@@H](c2ccc(O)cc2)Oc2cc(O)cc(O)c21 [Naringenin] |  |  | 86.43 | 34.7 |  |  |  |  | 61.5 | 242 | 58.9 | prevented morphological modifications | 42.9 |  |  | 86.43
